Source: patent US9931373B2, “Method of reducing cancer cell proliferation by administering recombinant alpha-fetoprotein” (priority 2005, dated 2018)

Key:
[1] = test system: syngeneic leukemia cells P388; experiment: Syngeneic acute leukemia P388 in BDF1 mice, survival over 30 days; format: in vivo; details: for T (survival, days): single injection
Source text: We have studied the effect of combined treatment with AFP+Dox of acute leukemia in mice BDF1 with transplanted intrapleurally syngeneic P388 leukemia cells. BDF-1 mice (84 male, 28 mice per treatment) were implanted with lethal dose of 12×10^6 syngeneic leukemia cells P388 in the pleural region. Animals were subjected to monotherapy with Dox and combined therapy with rhAFP/Dox upon simultaneous single injection of drugs in various doses. Animal survival was compared over 30 days.

[2] = test system: Human breast cancer cells MCF-7; experiment: Combined treatment of MCF-7 cells with chemotherapeutic agents and rhAFP, MTT or H3-thymidine; format: cell-based; details: MCF-7, 72 hrs, agent with addition of 0.1 mg/ml of rhAFP, suboptimal doses, FIG. 8
Protocol: Cell proliferation was assessed by H3-thymidine incorporation assay or by MTT technique.
Human breast cancer cells MCF-7 were plated onto 96-well plastic wells (Costar) in 10^4 cells/ml in DMEM medium with addition of 2% fetal calf serum and were treated during 72 hrs with one of chemotherapeutic agents: doxorubicin, cysplatin, etoposide, metatrexate or those with addition of 0.1 mg/ml of rhAFP. Cytotoxic effect was estimated by MTT assay or H3-thymidine incorporation assay. It was observed synergistic enhance of the total tumor-suppressive effect in suboptimal doses of all agents in the presence of AFP (FIG. 8).

rhAFP = biological target: T1, rhAFP (Homo sapiens, UniProt P02771); experiment: Formation of noncovalent complexes with rhAFP, absorption spectra and Sephadex G-25; format: binding; details: steady-state absorption; curcumin 30 μM, rhAFP 5 μM to 40 μM, FIG. 12A
T1 construct: pre-pro secretion region of yeast MFalpha1 (secretion leader, removed on secretory processing) (N, cleaved yes); made in house; host or cells: Saccharomyces cerevisiae YBS723/pKX (secreted into the culture liquid)
T1 sequence (P02771 20-609): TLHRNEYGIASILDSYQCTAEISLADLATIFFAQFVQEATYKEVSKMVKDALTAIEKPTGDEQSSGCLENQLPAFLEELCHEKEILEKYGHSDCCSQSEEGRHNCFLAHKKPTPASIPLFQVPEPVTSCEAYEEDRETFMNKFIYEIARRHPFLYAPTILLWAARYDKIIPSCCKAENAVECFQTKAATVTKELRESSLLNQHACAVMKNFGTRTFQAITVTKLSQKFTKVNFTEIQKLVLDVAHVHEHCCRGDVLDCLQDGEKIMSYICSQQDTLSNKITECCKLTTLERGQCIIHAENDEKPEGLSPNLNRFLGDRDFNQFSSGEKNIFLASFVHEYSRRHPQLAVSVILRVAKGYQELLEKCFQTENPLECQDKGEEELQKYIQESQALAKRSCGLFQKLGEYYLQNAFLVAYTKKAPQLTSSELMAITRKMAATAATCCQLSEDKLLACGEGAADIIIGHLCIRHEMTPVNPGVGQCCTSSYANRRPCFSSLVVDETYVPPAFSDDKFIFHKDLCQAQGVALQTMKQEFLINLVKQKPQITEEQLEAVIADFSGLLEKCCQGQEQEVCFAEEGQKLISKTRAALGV
Protocol: Absorption spectra of aqueous solutions containing 30 μM of curcumin and various doses of rhAFP: (1) 30 μM of curcumin; (2) 30 μM of curcumin+20 μM rhAFP; (3) 30 μM of curcumin+40 μM rhAFP. Panel at the top (A): absorption spectra of non-covalent complex of rhAFP/curcumin after chromatography through a column with Sephadex G-25.
Phytochemicals are nonnutritive components of plants that are currently being studies in chemoprevention and combined therapy of cancer. […] Other plant-derived tumoricidal compounds—flavonoids, isoflavonoids, flavons, flavanones, isoflavanones have been widely investigated for their ability to suppress tumor growth in vitro. Some of them display significant homology with steroids and mimic reveal antagonistic or agonistic activity in mammals. Ability of AFP to bind isoflavanoids was documented by various researches (Deutsch H. F, 1991, Adv. Canc. Res. 56, 253-312). […] The absorption spectra of solutions containing curcumin and rhAFP were followed keeping concentration of curcumin constant 30 μM and rhAFP varied from 5 μM to 40 μM. […] FIG. 12A gives the absorption spectral changes in curcumin in the presence of rhAFP in the wavelength range of 250-550 nm. […] Whereas after addition of rhAFP the maximum of absorbance of curcumin blue-shifted from 426 to 350 nm (curve 3). […]

tumor cells = experiment: Combined administration of rhAFP and plant-derived compounds, suppression of tumor cell growth; format: cell-based; details: FIG. 12B, C
[3] = test system: cells of B-cellular lymphoma Raji; experiment: Suppression of growth of Raji cells in vitro, [H3]-thymidine incorporation; format: cell-based, human; details: 12 hours with AFP, dose-dependent, FIG. 5
Protocol: The functional activity of rAFP and the modified forms thereof were determined according to its capability of suppressing the growth of cells of B-cellular lymphoma Raji in the culture in vitro, as earlier described (Semenkova, L. 1997, Tumor Biol. 18, 261-274; Dudich E. I., et al., 1998, Tumor Biol. 198, 30-40). Preliminarily washed by a fresh medium, Raji cells were placed into each cell of a 96-alverolar plate according to 5×10^3 in 0.1 ml of a medium RPMI-1640 in the presence of a 10% fetal calf serum, then different doses of AFP were added for 12 hours. Proliferation of the cells was measured by a standard method by the introduction of [H^3]-thymidine during the last 4 hours of culturing. For comparison, the dose-dependent reactivity was studies for two samples of AFP of embryonal origin embrAFP and yeast rAFP (FIG. 5). […] Similarly, in order to determine the activity to preparations on the base of AFP in vitro, any other lines of cancer cells may be used that are sensitive to the suppressive action of AFP, such as human hepatocarcinoma HepG2, breast cancer MCF-7, prostate cancer LnCap, myeloblastoma U-937 and others (Semenkova, L. 1997, Tumor Biol. 18, 261-274; Dudich E. I., et al., 1998, Tumor Biol. 198, 30-40).

## COc1cccc2c1C(=O)c1c(O)c3c(c(O)c1C2=O)C[C@@](O)(C(=O)CO)C[C@@H]3O[C@H]1C[C@H](N)[C@H](O)[C@H](C)O1 [Dox, doxorubicin]
[1]; Dox 3.0 mg/kg
  Survival more 30 days: 0
  T/C %: 303%
  T (survival, days): [13.9/17.1] 19.7 days
[1]; Dox 5.0 mg/kg
  Survival more 30 days: 0
  T/C %: 315%
  T (survival, days): [17.0/22.4] 20.5 days
[1]; Dox 1.o mg/kg
  Survival more 30 days: 0
  T/C %: 238%
  T (survival, days): 6.5 [6.2/6.8] 15.5 days
[2]
  total tumor-suppressive effect of agent together with rhAFP: significant synergistic tumor-suppression

## COc1cc([C@@H]2c3cc4c(cc3[C@@H](O[C@@H]3O[C@@H]5CO[C@@H](C)O[C@H]5[C@H](O)[C@H]3O)[C@H]3COC(=O)[C@H]23)OCO4)cc(OC)c1O [etoposide]
[2]
  total tumor-suppressive effect of agent together with rhAFP: significant synergistic tumor-suppression

## O=c1c(-c2ccc(O)cc2)coc2cc(O[C@@H]3O[C@H](CO)[C@@H](O)[C@H](O)[C@H]3O)cc(O)c12 [genistin]
rhAFP
  formation of noncovalent complexes with rhAFP: form noncovalent complexes
Tumor cells
  total tumor suppressive effect upon combined treatment with rhAFP: significant enhance of the total tumor suppressive effect

## N.N.[Cl][Pt][Cl] [cysplatin]
[2]
  total tumor-suppressive effect of agent together with rhAFP: significant synergistic tumor-suppression

## CN(Cc1cnc2nc(N)nc(N)c2n1)c1ccc(C(=O)N[C@@H](CCC(=O)O)C(=O)O)cc1 [metatrexate]
[2]
  total tumor-suppressive effect of agent together with rhAFP: significant synergistic tumor-suppression

## COc1cc(/C=C/C(=O)CC(=O)/C=C/c2ccc(O)c(OC)c2)ccc1O [curcumin]
rhAFP
  formation of noncovalent complexes with rhAFP: form noncovalent complexes
Tumor cells
  total tumor suppressive effect upon combined treatment with rhAFP: significant enhance of the total tumor suppressive effect

B1: embrAFP: purified AFP of embryonal origin, obtained from embryonic serum (protein, UniProt P02771 19-609, looked up)
Alpha-fetoprotein: RTLHRNEYGIASILDSYQCTAEISLADLATIFFAQFVQEATYKEVSKMVKDALTAIEKPTGDEQSSGCLENQLPAFLEELCHEKEILEKYGHSDCCSQSEEGRHNCFLAHKKPTPASIPLFQVPEPVTSCEAYEEDRETFMNKFIYEIARRHPFLYAPTILLWAARYDKIIPSCCKAENAVECFQTKAATVTKELRESSLLNQHACAVMKNFGTRTFQAITVTKLSQKFTKVNFTEIQKLVLDVAHVHEHCCRGDVLDCLQDGEKIMSYICSQQDTLSNKITECCKLTTLERGQCIIHAENDEKPEGLSPNLNRFLGDRDFNQFSSGEKNIFLASFVHEYSRRHPQLAVSVILRVAKGYQELLEKCFQTENPLECQDKGEEELQKYIQESQALAKRSCGLFQKLGEYYLQNAFLVAYTKKAPQLTSSELMAITRKMAATAATCCQLSEDKLLACGEGAADIIIGHLCIRHEMTPVNPGVGQCCTSSYANRRPCFSSLVVDETYVPPAFSDDKFIFHKDLCQAQGVALQTMKQEFLINLVKQKPQITEEQLEAVIADFSGLLEKCCQGQEQEVCFAEEGQKLISKTRAALGV
[3]
  cytostatic activity, inhibition of growth of Raji cells: expressed cytostatic activity
